Measured values published in patent US20210244713A1, “ANHYDROUS COMPOSITIONS OF mTOR INHIBITORS AND METHODS OF USE” (PALVELLA THERAPEUTICS, INC., priority 2018, published 2021).

Columns and labels:
[1] = Ex vivo skin permeation experiment; format: in vitro ADME, Human
Protocol: Human donor skin was placed between upper and lower compartments. The lower compartment was filled with receiver fluid. Various rapamycin compositions were applied on the surface of the skin facing the upper compartment (11 formulations (i.e., O3, NA21, NA22, NA21, NA17, TD201, NA19, NA25, AG14, NA26 and NA24), n=6 replicates, dosage 10 mg/cm^2) and left for 24 hrs. A positive displacement pipette was used to apply the formulation (˜10 mg/cm^2) to the plunger of a 1 mL syringe. The formulation (10+/−0.5 mg) was applied to the skin surface and spread over the diffusion area using the plunger. Prior to and after the application the weight of the plunger was recorded, from which the dose per cell was calculated.
Following the time period, the excess rapamycin compositions were wiped from the skin surface and the skin layers were separated into stratum corneum, epidermis, and dermis. The Stratum corneum was removed from the human skin using a tape stripping procedure. The epidermis was separated from the dermis by dry heating at 60° C. for 2 min. Rapamycin was extracted from each layer by 90:10 v/v ethanol:water solvent mixture, and quantified. The receiver fluid in the lower compartment was also analyzed for the presence of rapamycin.

[2] = Solubility of rapamycin in solvents and solvent combination

CO[C@H]1C[C@@H]2CC[C@@H](C)[C@@](O)(O2)C(=O)C(=O)N2CCCC[C@H]2C(=O)O[C@H]([C@H](C)C[C@@H]2CC[C@@H](O)[C@H](OC)C2)CC(=O)[C@H](C)/C=C(\C)[C@@H](O)[C@@H](OC)C(=O)[C@H](C)C[C@H](C)/C=C/C=C/C=C/1C [Rapamycin, rapamycin (sirolimus)]
amount of rapamycin found on the surface of the skin ([1]; after 24 hours, relative to skin layers): greatest amount | amount of rapamycin quantified in both the epidermis and dermis over time ([1]; ex vivo human skin): increase | drug residing in the epidermis versus stratum corneum or dermal layer ([1]; ex vivo human skin): more of the drug residing in the epidermis | rapamycin detected in the receiver fluid ([1]; ex vivo human skin, any of the time points across the experimental period): not detected | Solubility capacity of each excipient based on concentration in formulation ([2]; IPA at 15.00 wt %): 0.56 wt % | Solubility capacity of each excipient based on concentration in formulation ([2]; IPA at 15.00 wt %, listed as rapamycin): −0.56 wt % | Solubility capacity of each excipient based on concentration in formulation ([2]; PEG 400 at 60.00 wt %): 1.03 wt % | Solubility capacity of each excipient based on concentration in formulation ([2]; diisopropyl adipate (DIA) at 15.00 wt %): 0.26 wt % | Solubility capacity of each excipient based on concentration in formulation ([2]; glycerol at 10.00 wt %): 0.08 wt % | Solubility capacity of the solvent system (expected maximum, simple linear additive effect) ([2]; sum of the excipient capacities): 1.93 wt %
